Measured values taken from paper PMC12146557 (iScience, 2025).

Experiments:
HsUbc13 (human Ubc13) = biological target: T1, HsUbc13 (human Ubc13) (Homo sapiens, UniProt P61088); experiment: LC-HRMS of tryptic peptides; assay type: biochemical
T1 sequence (P61088 1-152): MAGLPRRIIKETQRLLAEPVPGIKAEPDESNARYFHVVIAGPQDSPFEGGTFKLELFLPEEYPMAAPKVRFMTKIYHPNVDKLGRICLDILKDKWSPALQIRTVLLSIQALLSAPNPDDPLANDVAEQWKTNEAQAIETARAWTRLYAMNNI

[1] = biological target: T2, PfUbc13 (Plasmodium falciparum ubiquitin-conjugating enzyme 13) (Plasmodium falciparum, UniProt Q8I3J4); experiment: LC-HRMS of tryptic peptides; assay type: biochemical
T2 sequence (Q8I3J4 1-152): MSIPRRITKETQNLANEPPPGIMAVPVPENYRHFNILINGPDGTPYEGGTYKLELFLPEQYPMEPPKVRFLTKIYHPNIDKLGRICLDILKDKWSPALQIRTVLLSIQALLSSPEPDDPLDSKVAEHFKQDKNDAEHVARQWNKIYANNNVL
T2 sequence (Q8I5F9 1-1140 partner): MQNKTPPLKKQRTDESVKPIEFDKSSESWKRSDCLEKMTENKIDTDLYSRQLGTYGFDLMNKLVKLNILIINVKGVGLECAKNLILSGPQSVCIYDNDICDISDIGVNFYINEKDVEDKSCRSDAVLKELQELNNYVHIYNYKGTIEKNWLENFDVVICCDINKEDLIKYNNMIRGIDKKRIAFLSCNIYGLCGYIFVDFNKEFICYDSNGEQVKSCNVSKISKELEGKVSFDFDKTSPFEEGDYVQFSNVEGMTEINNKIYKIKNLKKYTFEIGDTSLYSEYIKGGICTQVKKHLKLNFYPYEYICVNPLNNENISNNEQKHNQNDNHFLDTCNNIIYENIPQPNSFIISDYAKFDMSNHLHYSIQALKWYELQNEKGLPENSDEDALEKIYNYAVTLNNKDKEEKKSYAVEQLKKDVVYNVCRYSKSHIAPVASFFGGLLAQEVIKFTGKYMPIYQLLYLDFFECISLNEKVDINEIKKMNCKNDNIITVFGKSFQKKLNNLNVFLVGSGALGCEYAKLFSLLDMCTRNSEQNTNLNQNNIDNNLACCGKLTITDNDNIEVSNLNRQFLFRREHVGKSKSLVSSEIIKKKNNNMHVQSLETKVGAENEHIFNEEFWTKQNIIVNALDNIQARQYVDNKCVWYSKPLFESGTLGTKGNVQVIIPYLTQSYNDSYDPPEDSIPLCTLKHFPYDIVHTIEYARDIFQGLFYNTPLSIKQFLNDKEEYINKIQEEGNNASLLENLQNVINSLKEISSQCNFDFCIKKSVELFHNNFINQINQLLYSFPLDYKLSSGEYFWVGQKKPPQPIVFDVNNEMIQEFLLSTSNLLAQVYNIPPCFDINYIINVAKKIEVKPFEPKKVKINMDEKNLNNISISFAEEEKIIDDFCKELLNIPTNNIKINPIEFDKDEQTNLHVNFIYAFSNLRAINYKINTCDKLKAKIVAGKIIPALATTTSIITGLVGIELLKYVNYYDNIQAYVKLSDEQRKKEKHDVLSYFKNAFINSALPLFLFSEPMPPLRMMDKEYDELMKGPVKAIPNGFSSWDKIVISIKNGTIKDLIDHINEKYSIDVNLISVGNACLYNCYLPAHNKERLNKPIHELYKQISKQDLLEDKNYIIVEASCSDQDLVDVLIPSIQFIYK

Q: What does the source list for `Cc1ccc(S(=O)(=O)c2ccc([N+](=O)[O-])o2)cc1` [NSC697923]?
A: Ki (HsUbc13 (human Ubc13)): 280 ± 70 nM; Ki [1]: 360 ± 110 nM
